In patent US7081568B2, “Transgenic plants expressing temporin peptides” (University of Victoria Innovation and Development …, priority 1999, dated 2006):
Where no end group is shown, it is not given here.

Assays:
Escherichia coli = assay: Bactericidal effect of antimicrobial peptides in microtiter plates, colony count; type: cell-based; conditions: approximately 1×10^5 bacteria/ml, 4 hours at room temperature, plated on LB, FIG. 2
Description: The cell cultures were incubated at room temperature in the presence of indicated concentration of Dermaseptin B (DSB; 7 μg/ml, 30 μg/ml, and 75 μg/ml), Temporin A (TA; 75 μg/ml, 133 μg/ml, 200 μg/ml) and a combination of Temporin A and Dermaseptin B (133 μg/ml Temporin A and 30 μg/ml Dermaseptin B) for 4 hours, diluted and plated on LB plates. After overnight incubation at 37° C., the colonies were counted and the survival of bacteria was scored.
(§1) Bactericidal effects of antimicrobial peptides (SEQ ID NO: 34 (MRSA3) and SEQ ID NO: 28 (MRSA2)) were determined against Escherichia coli (FIG. 2) and Erwinia carolovora (FIG. 3) in microtiter plates in a final volume of 220 μl containing approximately 1×10^5 bacteria/ml and indicated concentration of antimicrobial peptides. The cell cultures were incubated at room temperature for 4 hours, diluted and plated on LB plates. After overnight incubation at 37° C. (E. coli) or 28° C. (E. carotovora) the colonies were counted and the survival of bacteria was scored.

Erwinia carotovora = assay: as above; type: cell-based; conditions: approximately 1×10^5 bacteria/ml, 4 hours at room temperature, plated on LB, FIG. 3
Description: The cell cultures were incubated at room temperature in the presence of indicated concentration of Dermaseptin B (DSB; 23 μg/ml, 45 μg/ml) or Temporin A (TA; 67 μg/ml, 133 μg/ml) for 4 hours, diluted and plated on LB plates. After overnight incubation at 28° C., the colonies were counted and the survival of bacteria was scored.
as §1

| Substance | bactericidal effect, survival of bacteria (Escherichia coli) | bactericidal effect, survival of bacteria (Erwinia carotovora) |
| --- | --- | --- |
| MRSA2: mature 27 amino acid form of dermaseptin b with a 5 amino acid N-terminal extension MAMWK; called Dermaseptin B in figure legends (MAMWKDVLKKIGTVALHAGKAALGAVADTISQ; ends and bridges not checked) | significant antimicrobial activity | significant antimicrobial activity |
| MRSA3: mature 13 amino acid form of temporin A with a 6 amino acid N-terminal extension MASRHM; called Temporin A in figure legends (MASRHMFLPLIGRVLSGIL; ends and bridges not checked; listed as Rana temporaria) | significant antimicrobial activity | significant antimicrobial activity |
